In BindingDB's records for doi:10.1016/0960-894X(96)00456-8 (1996):

Assay: Compound was evaluated for inhibitory activity against herpes simplex type 2 protease (HSV-2 pr).

IC50 [µM] | SMILES
1.2 | CC(=O)Oc1ccc([C@H]2C[C@@]23N=C(c2ccccc2)OC3=O)cc1 [Acetic acid 4-((1R,3R)-7-oxo-5-phenyl-6-oxa-4-aza-spiro[2.4]hept-4-en-1-yl)-phenyl ester]
0.7 | O=C1OC(c2ccccc2)=N[C@@]12C[C@@H]2c1ccccc1 [(1R,3R)-1,5-Diphenyl-6-oxa-4-aza-spiro[2.4]hept-4-en-7-one]
